Data: PubChem BioAssay (NCI)
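Exposure lasted 48 hours, with cells grown in 96-well plates and compounds tested at five concentrations. At the GI50, growth is halved. TGI: concentration producing complete growth inhibition.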

What was measured:
Experiment in all cases: inhibition of tumour cell growth, NCI panel, 48 h
[1] = system: SNB-75 CNS
[2] = system: OVCAR-8 ovarian
[3] = system: SNB-19 CNS
[4] = system: DU-145 prostate
[5] = system: UACC-62 melanoma
[6] = system: UO-31 renal
[7] = system: SW-620 colon
[8] = system: HCT-116 colon
[9] = system: HOP-62 NSCLC
[10] = system: SF-295 CNS

Row | Compound | TGI [1] | TGI [2] | TGI [3] | TGI [4] | TGI [5] | TGI [6] | TGI [7] | TGI [8] | TGI [9] | TGI [10] | GI50 [1] | GI50 [2] | GI50 [3] | GI50 [4] | GI50 [5] | GI50 [6] | GI50 [7] | GI50 [8] | GI50 [9] | GI50 [10]
1 | CCCCCCCCCCCCNC(C)=O | 55.8 µM | 44.5 µM | 31.2 µM | > 100 µM | 30.2 µM | 46.9 µM | 30.9 µM | 37 µM | 28.9 µM | 34.4 µM |  |  |  |  |  |  |  |  |  | 
2 | Cc1c2cc[n+](C)cc2c(C)c2c1sc1ccccc12 | 0.804 µM | 4.8 µM | 2 µM | 5.07 µM | 4.25 µM | > 90.7 µM | 33.1 µM | 23.7 µM | 1.76 µM | 0.783 µM |  |  |  |  |  |  |  |  |  | 
3 | Cc1ccc(S(=O)(=O)OC2CCN(C)CC2)cc1 | > 100 µM | > 100 µM | > 100 µM | > 100 µM | > 100 µM |  | 42 µM | > 100 µM | > 100 µM | > 100 µM |  |  |  |  |  |  |  |  |  | 
4 | CCNC(=O)[C@@H]1CCCN2C(=O)CC[C@H](NC(=O)[C@H](Cc3ccc(OP(=O)(O)O)cc3)NC(C)=O)C(=O)N12 | > 25 µM | > 25 µM | > 25 µM | > 25 µM | > 25 µM | > 25 µM | > 25 µM | > 25 µM | > 25 µM | > 25 µM | > 25 µM | > 25 µM | > 25 µM | > 25 µM | > 25 µM | > 25 µM | > 25 µM | > 25 µM | > 25 µM | > 25 µM
5 | Cc1c(N2CCCC2)cc2c(c1NC(=O)c1ccccc1Cl)C(C)(C)CC2(C)C | 28.9 µM | 32.6 µM | 29.5 µM | 29.3 µM | 23.2 µM | 26.4 µM | 33.1 µM | 22.8 µM | 28.4 µM | 26.8 µM |  |  |  |  |  |  |  |  |  | 
6 | COc1cc(NS(C)(=O)=O)ccc1Nc1c2ccc([N+](=O)[O-])cc2nc2c(C)cccc12 | 7.48 µM | 14 µM | 14.1 µM | 10.7 µM | 11.1 µM | 11.4 µM | 12.2 µM | 10.7 µM | 6.37 µM | 11.1 µM | 0.311 µM | 1.08 µM | 0.213 µM | 0.133 µM | 0.377 µM | 1.22 µM | 0.349 µM | 0.361 µM | 0.107 µM | 0.171 µM
7 | OC(c1cccc(-n2ccc(C(F)(F)F)n2)c1)c1cnccc1NC1CCCCCC1 (stereo unspecified) | 2.67 µM | 3.93 µM | 3.24 µM | 3.24 µM | 3.14 µM | 2.7 µM | 3.31 µM | 3.59 µM | 3.84 µM | 3.2 µM | 1.36 µM | 1.92 µM | 1.73 µM | 1.81 µM | 1.74 µM | 1.37 µM | 1.67 µM | 1.79 µM | 1.95 µM | 1.79 µM
8 | F | 5570 µM | > 6870 µM | > 6870 µM | > 6870 µM | 3100 µM | 6220 µM |  | > 6870 µM | > 6870 µM | 6380 µM | 2160 µM | 3250 µM | 6220 µM | 2800 µM | 1550 µM | 1790 µM |  | 2820 µM | 2560 µM | 2050 µM
9 | C/C(=N\NC(=O)c1sc(=S)n(C)c1N)c1cc2ccccc2o1 | 42.6 µM | 33.8 µM | 45.6 µM | 27.6 µM | 61.8 µM | 37.8 µM | 28.4 µM | 32 µM | 27.2 µM | 30 µM | 17.3 µM | 15.3 µM | 17.1 µM | 11.4 µM | 18.5 µM | 18.3 µM | 14.8 µM | 16.2 µM | 13.3 µM | 14.4 µM
10 | N#Cc1c(-c2ccccc2)nc(SCC2CO2)nc1N1CCOCC1 (stereo unspecified) | > 82.6 µM | > 100 µM | > 100 µM | > 100 µM | > 86.9 µM | > 100 µM | > 100 µM | > 100 µM | > 86.8 µM | 28.2 µM | 1.91 µM | 35.9 µM | 64.4 µM | 14.2 µM | 3.52 µM | 5.61 µM | 28.8 µM | 20.5 µM | 6.8 µM | 2.67 µM
11 | O=C[C@@H](CO)O[C@H](C=O)c1c[nH]c(=O)[nH]c1=O | 1310 µM | 352 µM | 813 µM | 437 µM | 219 µM | 287 µM | 646 µM | 513 µM | 258 µM | 1150 µM |  |  |  |  |  |  |  |  |  | 
12 | CCc1nc(N)nc(N)c1-c1ccc(NCCN)c([N+](=O)[O-])c1 | > 89.7 µM | > 100 µM | > 100 µM | > 100 µM | > 100 µM | > 100 µM | > 100 µM | > 100 µM | 75.8 µM | > 100 µM |  |  |  |  |  |  |  |  |  | 
13 | CC12CCC3C(CCC4Cc5[nH]c6ccccc6c5CC43C)C1CCC2O (stereo unspecified) | > 100 µM | > 100 µM | > 100 µM | 5.5 µM | 2.35 µM | > 100 µM | > 100 µM |  | 2.57 µM | 3.26 µM | 0.574 µM | 4.1 µM | 2.89 µM | 1.69 µM | 0.284 µM | 4.37 µM | 0.497 µM | 0.501 µM | 0.348 µM | 0.3 µM
14 | O=[N+]([O-])c1ccc(S(=O)(=O)Cc2ccccc2)c([N+](=O)[O-])c1 | 21.2 µM | 3.7 µM | 39.6 µM | 9.59 µM | 5.22 µM | 2.95 µM | 20.1 µM | 3.51 µM | 9.13 µM | 33.6 µM |  |  |  |  |  |  |  |  |  | 
15 | Cn1cc(-c2ccc3c(Nc4cccc(NC(=O)Nc5cccc(F)c5)c4)ncnc3c2)cn1 | 9.57 µM | > 100 µM | 13.5 µM | 6.6 µM | 15 µM | 13.7 µM | 4.45 µM | 7.9 µM | 14.9 µM | 8.42 µM | 0.0391 µM | 2.25 µM | 3.16 µM | 1.86 µM | 3.21 µM | 2.09 µM | 1.9 µM | 2.04 µM | 1.84 µM | 1.81 µM
